This is an account of results in US11098095B1, “Methods of inhibiting MMP-9” (DASMAN DIABETES INSTITUTE, priority 2020, dated 2021).

Common to all, as to format: cell-based
Experiment [1] concerns MMP-9 protein secretion by monocytes (THP-1 cells) and macrophages. Nature of the experiment: MMP-9 secreted protein in culture supernatants by sandwich ELISA. The settings on record: for cross-talk effect of IL-6 and TNF-α stimulation on the secretion of MMP-9 by monocytes: then IL-6/TNF-α for 24 hr; for crosstalk effect of IL-6 on TNF-α's enhancement of MMP-9 expression and secretion: summary statement, concentration not given; for MMP-9 protein secretion levels: monocytes and macrophages, stimulated 24 hr, FIGS. 2A-2B. Here is the method:
Monocytes (THP-1 cells and macrophages were cultured in 12-well plates (Costar, Corning Incorporated, Corning, N.Y., USA) at a cell density of 1/10^6 cells/well. Cells were pre-incubated with gp130 inhibitor (SC-144, 1.5 μM) or JAK2 inhibitor (AG-490, 30 μM) for 1 hour and then stimulated with IL-6 or TNF-α or IL-6/TNF-α for 24 hr at 37° C. (with humidity) in 5% CO2. Control cells were incubated with culture media only. Culture media and cells were harvested and MMP9 mRNA and protein expression levels were assessed by real-time PCR (RT-PCR) and ELISA. MMP-9 secreted protein in the supernatants of monocytes and macrophages stimulated with IL-6, TNF-α, or IL-6 and TNF-α was quantified using sandwich ELISA following the manufacturers instructions (SMP900, R&D systems, Minneapolis, USA). As illustrated in FIGS. 2A-2B. […] As illustrated in FIGS. 3A-3B, this robust cross-talk effect of IL-6 and TNF-α stimulation on the secretion of MMP-9 by monocytes may be extinguished by administration of either a JAK2 inhibitor AG-490, See FIG. 3A) or a gp130 inhibitor (SC-144, See FIG. 3B).
In general terms: ELISA stands for enzyme-linked immunosorbent assay.

Experiment [2] relates to MMP-9 mRNA expression in monocytes (THP-1 cells) and macrophages. Nature of the experiment: MMP-9 mRNA expression by real-time PCR (RT-PCR). To be noted: stimulated 24 hr, FIGS. 1A and 1B. Here is the method:
Monocytes (THP-1 cells and macrophages were cultured in 12-well plates (Costar, Corning Incorporated, Corning, N.Y., USA) at a cell density of 1/10^6 cells/well. Cells were pre-incubated with gp130 inhibitor (SC-144, 1.5 μM) or JAK2 inhibitor (AG-490, 30 μM) for 1 hour and then stimulated with IL-6 or TNF-α or IL-6/TNF-α for 24 hr at 37° C. (with humidity) in 5% CO2. Control cells were incubated with culture media only. Culture media and cells were harvested and MMP9 mRNA and protein expression levels were assessed by real-time PCR (RT-PCR) and ELISA.
Total RNA was extracted using RNeasy Mini Kit (Qiagen, Valencia, Calif.; USA). […] For RT-PCR, cDNA template (50 ng) was amplified using inventoried TaqMan Gene Expression Assay products (MMP-9; Hs00234579_m1; GAPDH; Bs0392909_g1; containing two gene-specific printers and one TaqMan MGB probe (6-FAM dye-labeled) with a TaqMan Gene Expression Master Mix (Applied Biosystems, Foster City, Calif., USA) and a 7500 Fast Real-Time PCR System (Applied Biosystems, Foster City, Calif., USA). The mRNA levels were normalized against GAPDH mRNA and MMP-9 mRNA expression relative to control was calculated using the 2^−ΔΔCt-method. Relative mRNA expression is shown as told expression over average of control gene expression. […] The results were analyzed statistically and P<0.05 was considered significant.
In general terms: Quantitative PCR measures a nucleic acid by following its amplification.

For experiment [3], the system named is MMP-9 proteolytic activity in conditioned media of THP-1 cells. The experiment in a line: MMP9 proteolytic activity measured using gelatin zymography. The settings on record: monocytes (THP-1), 24 hours incubation. Here is the method:
THP-1 cells were incubated with TNF-α and IL-6. After incubation for 24 hours, conditioned media were collected and mixed with Zymogram sample buffer (BioRad; 62.5 mM Tris-HCl, pH.6.8, 25% glycerol, 4% SDS and 0.01% bromophenol blue) and then loaded on to a 10% polyacrylamide gel with gelatin (10% Ready Gel Zymogram Gel, BioRad) for electrophoresis. The gel was incubated with renaturing buffer BioRad (2.5% Triton X-100) for 1 hour at room temperature and Incubated with zonogram developing buffer.

For the compound `O=C(NNc1nc2cc(F)ccc2n2cccc12)c1cnccn1` [SC-144], the “cross-talk effect of IL-6 and TNF-α stimulation on the secretion of MMP-9 by monocytes” value in experiment [1] (SC-144 1.5 μM pre-incubated 1 hour, FIG. 3B) is listed as “extinguished”. In experiment [1], the “crosstalk effect of IL-6 on TNF-α's enhancement of MMP-9 expression and secretion” value was “suppress”.
Take `N#C/C(=C\c1ccc(O)c(O)c1)C(=O)NCc1ccccc1` [AG490]: in experiment [1] (AG-490 30 μM pre-incubated 1 hour, FIG. 3A), the “cross-talk effect of IL-6 and TNF-α stimulation on the secretion of MMP-9 by monocytes” value is “extinguished”. Moreover, the “crosstalk effect of IL-6 on TNF-α's enhancement of MMP-9 expression and secretion” value in experiment [1] was “suppress”.
Take tumor necrosis factor alpha [TNF-α]: the “MMP-9 protein secretion levels” value in experiment [1] is reported as “increased”. Also, the “MMP-9 mRNA expression relative to control” value in experiment [2] is given as “increase”. Besides, the MMP-9 proteolytic activity entry in experiment [3] is given as “lesser”.
In the case of interleukin-6 [IL-6], in experiment [1], the “MMP-9 protein secretion levels” value is “minimally effected”. Further, in experiment [3], the MMP-9 proteolytic activity result is listed as “minimal”.
